Test results: PMC3071879 (Journal of the American Chemical Society, 2011)

Legend:
Format in all cases: biochemical
[1] = molecular target: T1, PacW (Streptomyces coeruleorubidus, UniProt F5BFC7); test: ATP-[…]PPi exchange; conditions: adenylation, DL mixture used
T1 sequence (F5BFC7 1-507): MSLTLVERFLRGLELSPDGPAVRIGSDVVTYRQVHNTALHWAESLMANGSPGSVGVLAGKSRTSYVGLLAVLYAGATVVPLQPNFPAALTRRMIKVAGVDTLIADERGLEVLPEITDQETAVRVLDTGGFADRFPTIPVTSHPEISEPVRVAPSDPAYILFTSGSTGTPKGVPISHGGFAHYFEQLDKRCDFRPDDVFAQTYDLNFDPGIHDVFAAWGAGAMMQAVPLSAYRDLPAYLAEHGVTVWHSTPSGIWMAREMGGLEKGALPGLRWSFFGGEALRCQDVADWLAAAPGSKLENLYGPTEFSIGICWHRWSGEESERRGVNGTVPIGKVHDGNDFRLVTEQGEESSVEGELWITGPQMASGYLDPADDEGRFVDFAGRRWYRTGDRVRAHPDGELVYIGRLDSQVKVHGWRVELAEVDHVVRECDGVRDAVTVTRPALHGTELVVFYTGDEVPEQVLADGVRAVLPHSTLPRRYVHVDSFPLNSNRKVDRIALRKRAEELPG

[2] = molecular target: T2, PacP (Streptomyces coeruleorubidus, UniProt E2EKP8); test: ATP-[…]PPi exchange; conditions: adenylation
T2 sequence (E2EKP8 1-848): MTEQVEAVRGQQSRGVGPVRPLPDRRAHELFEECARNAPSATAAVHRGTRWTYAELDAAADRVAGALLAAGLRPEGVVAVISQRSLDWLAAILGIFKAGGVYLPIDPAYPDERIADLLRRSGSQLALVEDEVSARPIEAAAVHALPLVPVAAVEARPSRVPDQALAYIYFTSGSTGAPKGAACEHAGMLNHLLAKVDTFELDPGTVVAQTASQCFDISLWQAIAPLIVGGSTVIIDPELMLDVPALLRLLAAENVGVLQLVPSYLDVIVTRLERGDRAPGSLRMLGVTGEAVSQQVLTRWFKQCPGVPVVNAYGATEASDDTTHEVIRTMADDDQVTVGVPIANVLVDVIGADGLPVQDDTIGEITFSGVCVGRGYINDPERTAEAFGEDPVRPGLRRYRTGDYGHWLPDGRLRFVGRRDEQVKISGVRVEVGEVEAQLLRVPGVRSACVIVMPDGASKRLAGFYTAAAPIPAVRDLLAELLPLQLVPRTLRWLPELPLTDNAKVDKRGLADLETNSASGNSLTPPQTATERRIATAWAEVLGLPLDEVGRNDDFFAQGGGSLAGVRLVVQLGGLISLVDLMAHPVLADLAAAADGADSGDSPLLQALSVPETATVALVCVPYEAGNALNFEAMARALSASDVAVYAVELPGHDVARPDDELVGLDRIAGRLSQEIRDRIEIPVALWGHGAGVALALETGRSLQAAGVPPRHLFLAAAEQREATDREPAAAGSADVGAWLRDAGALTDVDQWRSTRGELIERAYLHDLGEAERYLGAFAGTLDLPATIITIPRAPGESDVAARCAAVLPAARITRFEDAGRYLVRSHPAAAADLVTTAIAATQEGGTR

[3] = molecular target: T3, PacU (Streptomyces coeruleorubidus, UniProt E2EKQ3); test: ATP-[…]PPi exchange; conditions: adenylation
T3 sequence (E2EKQ3 1-507): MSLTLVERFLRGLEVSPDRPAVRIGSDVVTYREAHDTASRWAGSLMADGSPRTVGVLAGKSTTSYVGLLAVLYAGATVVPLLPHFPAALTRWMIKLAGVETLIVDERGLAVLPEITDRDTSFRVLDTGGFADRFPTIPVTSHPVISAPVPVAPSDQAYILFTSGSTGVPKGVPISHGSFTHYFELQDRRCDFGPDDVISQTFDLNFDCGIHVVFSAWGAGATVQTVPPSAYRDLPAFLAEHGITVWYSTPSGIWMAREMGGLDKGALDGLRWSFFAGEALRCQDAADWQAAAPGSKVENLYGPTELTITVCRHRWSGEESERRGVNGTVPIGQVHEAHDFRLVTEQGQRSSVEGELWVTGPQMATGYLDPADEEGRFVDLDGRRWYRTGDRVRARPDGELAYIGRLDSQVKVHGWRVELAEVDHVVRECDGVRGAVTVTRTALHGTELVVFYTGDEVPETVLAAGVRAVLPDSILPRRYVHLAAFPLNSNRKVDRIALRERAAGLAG

[4] = molecular target: PacV (Streptomyces coeruleorubidus, UniProt E2EKQ4); test: SDS-PAGE autoradiography of […]-methyl transfer; conditions: methyl acceptor DABA tethered to holo-PacP; labelled compound
PacV, sequence (E2EKQ4 1-250): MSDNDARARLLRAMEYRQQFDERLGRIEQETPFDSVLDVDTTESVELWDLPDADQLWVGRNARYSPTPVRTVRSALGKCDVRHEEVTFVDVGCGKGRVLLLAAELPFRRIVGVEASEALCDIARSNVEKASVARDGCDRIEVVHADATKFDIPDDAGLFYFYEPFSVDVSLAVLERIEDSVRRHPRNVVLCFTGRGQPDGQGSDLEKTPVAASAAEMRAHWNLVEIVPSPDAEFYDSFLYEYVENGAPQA

SMILES: NC(Cc1cccc(O)c1)C(=O)O (racemic) [m-Tyr]
- ATP-[32P]PPi exchange [1]: demonstrated a strong preference for the activation of m-Tyr over other aromatic amino acids

SMILES: C[C@H](N)[C@H](N)C(=O)O [2S,3S-DABA]
- ATP-[32P]PPi exchange [2]: PacP exhibited a preference toward reversible formation of 2S,3S-DABA-AMP

SMILES: C[C@H](N)C(=O)O [L-Ala]
- ATP-[32P]PPi exchange [3]: exhibited a strong preference toward reversible formation of L-Ala-AMP

SMILES: C[S+](CC[C@H](N)C(=O)O)C[C@H]1O[C@@H](n2cnc3c(N)ncnc32)[C@H](O)[C@@H]1O (stereo partly shown) [S-adenosylmethionine]
- SDS-PAGE autoradiography of 14C-methyl transfer [4]: PacV indeed transferred the methyl group from S-adenosylmethionine (SAM) to holo-PacP
